Laboratory results: ChEMBL document CHEMBL2346597, “Use of core modification in the discovery of CC214-2, an orally available, selective inhibitor of mTOR kinase” (Bioorg Med Chem Lett, 2013)
Active and inactive are the calls of the source. The calls are words filed in the database; no cut-off is given here.

Columns and labels:
[1] = Oral bioavailability in rat at 5 mg/kg; assay type: ADME, organism-based; conditions: in vivo
[2] = Inhibition of mTORC2 in human PC3 cells assessed as inhibition of AKTS473 phosphorylation after 1 hr by sandwich immunoassay; assay type: cell-based; conditions: PC-3, 1 h
[3] = biological target: mTORC1 (Homo sapiens, UniProt P42345); experiment: Inhibition of mTORC1 in human PC3 cells assessed as inhibition of S6 phosphorylation after 1 hr by sandwich immunoassay; assay type: cell-based, PC-3
[4] = test system: PC-3; experiment: cells; conditions: Homo sapiens, PC-3, 72 h
[5] = biological target: Insulin receptor (Homo sapiens) (UniProt P06213); experiment: Inhibition of IRK1 (unknown origin) assessed as remaining activity at 10 uM relative to control
Insulin receptor (Homo sapiens), sequence (P06213 whole entry, looked up): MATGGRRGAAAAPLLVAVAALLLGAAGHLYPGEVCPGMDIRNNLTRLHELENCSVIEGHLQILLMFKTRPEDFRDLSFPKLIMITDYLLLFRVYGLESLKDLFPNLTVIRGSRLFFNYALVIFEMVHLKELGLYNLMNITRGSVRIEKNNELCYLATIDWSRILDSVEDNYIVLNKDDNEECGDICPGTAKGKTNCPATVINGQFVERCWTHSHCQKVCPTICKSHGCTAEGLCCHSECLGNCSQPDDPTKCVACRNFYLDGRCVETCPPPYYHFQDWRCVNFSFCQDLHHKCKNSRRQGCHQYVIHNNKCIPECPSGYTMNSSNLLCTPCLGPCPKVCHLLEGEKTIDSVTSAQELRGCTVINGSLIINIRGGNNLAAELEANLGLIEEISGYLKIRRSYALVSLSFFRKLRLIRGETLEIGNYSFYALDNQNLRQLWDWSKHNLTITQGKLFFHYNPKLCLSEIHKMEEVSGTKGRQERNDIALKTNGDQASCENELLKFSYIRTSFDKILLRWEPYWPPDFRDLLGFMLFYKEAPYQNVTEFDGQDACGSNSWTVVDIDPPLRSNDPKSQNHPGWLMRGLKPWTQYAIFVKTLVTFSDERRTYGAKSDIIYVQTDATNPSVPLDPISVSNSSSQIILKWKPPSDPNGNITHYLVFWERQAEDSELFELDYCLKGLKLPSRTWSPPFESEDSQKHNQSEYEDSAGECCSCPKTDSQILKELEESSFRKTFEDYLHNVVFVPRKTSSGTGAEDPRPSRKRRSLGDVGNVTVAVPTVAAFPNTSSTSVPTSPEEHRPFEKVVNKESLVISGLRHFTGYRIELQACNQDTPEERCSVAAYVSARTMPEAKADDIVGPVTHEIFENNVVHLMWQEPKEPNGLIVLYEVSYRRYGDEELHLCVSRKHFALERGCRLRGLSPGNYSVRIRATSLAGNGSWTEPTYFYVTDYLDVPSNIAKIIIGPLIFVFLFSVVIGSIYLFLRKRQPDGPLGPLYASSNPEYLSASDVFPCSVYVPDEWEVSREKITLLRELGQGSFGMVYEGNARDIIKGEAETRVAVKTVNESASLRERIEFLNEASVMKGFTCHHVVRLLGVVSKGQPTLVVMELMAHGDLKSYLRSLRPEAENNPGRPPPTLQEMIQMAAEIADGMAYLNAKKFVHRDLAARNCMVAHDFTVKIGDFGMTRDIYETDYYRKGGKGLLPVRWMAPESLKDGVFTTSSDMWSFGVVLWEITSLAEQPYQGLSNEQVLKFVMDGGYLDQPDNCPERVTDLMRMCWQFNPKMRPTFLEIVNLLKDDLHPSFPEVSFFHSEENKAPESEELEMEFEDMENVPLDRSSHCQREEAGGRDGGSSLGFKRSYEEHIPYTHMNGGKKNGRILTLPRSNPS

[6] = Drug uptake in tumor of CB17 SCID mouse xenografted with human PC3 cells at 30 mg/kg, po qd at 24 hrs; assay type: ADME, organism-based, Neoplasm, PC-3; set-up: dose 30 mg/kg, route oral; conditions: read-out: Drug uptake
[7] = Drug uptake in tumor of CB17 SCID mouse xenografted with human PC3 cells at 30 mg/kg, po qd at 8 hrs; assay type: ADME, organism-based, Neoplasm, PC-3; set-up: dose 30 mg/kg, route oral; conditions: read-out: Drug uptake
[8] = Drug uptake in tumor of CB17 SCID mouse xenografted with human PC3 cells at 30 mg/kg, po qd at 2 hrs; assay type: ADME, organism-based, Neoplasm, PC-3; set-up: dose 30 mg/kg, route oral; conditions: read-out: Drug uptake
[9] = Drug uptake in tumor of CB17 SCID mouse xenografted with human PC3 cells at 30 mg/kg, po qd at 4 hrs; assay type: ADME, organism-based, Neoplasm, PC-3; set-up: dose 30 mg/kg, route oral; conditions: read-out: Drug uptake
[10] = test system: Plasma; experiment: Free plasma concentration in CB17 SCID mouse xenografted with human PC3 cells at 30 mg/kg, po qd at 8 hrs; assay type: ADME, organism-based, PC-3; set-up: dose 30 mg/kg, route oral; conditions: in vivo
[11] = test system: Plasma; experiment: Free plasma concentration in CB17 SCID mouse xenografted with human PC3 cells at 30 mg/kg, po qd at 24 hrs; assay type: ADME, organism-based, PC-3; set-up: dose 30 mg/kg, route oral; conditions: in vivo
[12] = test system: Plasma; experiment: Free plasma concentration in CB17 SCID mouse xenografted with human PC3 cells at 30 mg/kg, po qd at 4 hrs; assay type: ADME, organism-based, PC-3; set-up: dose 30 mg/kg, route oral; conditions: in vivo
[13] = test system: Plasma; experiment: Free plasma concentration in CB17 SCID mouse xenografted with human PC3 cells at 30 mg/kg, po qd at 2 hrs; assay type: ADME, organism-based, PC-3; set-up: dose 30 mg/kg, route oral; conditions: in vivo
[14] = Plasma concentration in CB17 SCID mouse xenografted with human PC3 cells at 30 mg/kg, po qd at 24 hrs; assay type: ADME, organism-based, PC-3; set-up: dose 30 mg/kg, route oral
[15] = Plasma concentration in CB17 SCID mouse xenografted with human PC3 cells at 30 mg/kg, po qd at 4 hrs; assay type: ADME, organism-based, PC-3; set-up: dose 30 mg/kg, route oral
[16] = Plasma concentration in CB17 SCID mouse xenografted with human PC3 cells at 30 mg/kg, po qd at 8 hrs; assay type: ADME, organism-based, PC-3; set-up: dose 30 mg/kg, route oral
[17] = Plasma concentration in CB17 SCID mouse xenografted with human PC3 cells at 30 mg/kg, po qd at 2 hrs; assay type: ADME, organism-based, PC-3; set-up: dose 30 mg/kg, route oral
[18] = Tmax in rat at 5 mg/kg, po; assay type: ADME, organism-based; set-up: dose 5 mg/kg, route oral; conditions: in vivo
[19] = AUC (0 to infinity) in rat at 5 mg/kg, po; assay type: ADME, organism-based; set-up: time infinity, dose 5 mg/kg, route oral; conditions: plasma
[20] = Cmax in rat at 5 mg/kg, po; assay type: ADME, organism-based; set-up: dose 5 mg/kg, route oral; conditions: in vivo
[21] = Mean residence time in rat at 2 mg/kg, iv; assay type: ADME, organism-based; set-up: dose 2 mg/kg, route intravenous; conditions: in vivo
[22] = AUC (0 to infinity) in rat at 2 mg/kg, iv; assay type: ADME, organism-based; set-up: time infinity, dose 2 mg/kg, route intravenous; conditions: plasma
[23] = Volume of distribution at steady state in rat at 2 mg/kg, iv; assay type: ADME, organism-based; set-up: dose 2 mg/kg, route intravenous; conditions: in vivo, read-out: Vdss
[24] = test system: Mus musculus; experiment: In vivo inhibition of mTORC1 in human PC3 cells xenografted in CB17 SCID mouse assessed as inhibition of S6 phosphorylation at 30 mg/kg, po qd measured at 24 hrs relative to vehicle-treated control; assay type: functional; conditions: CB17, PC-3, 24 h
[25] = test system: Mus musculus; experiment: In vivo inhibition of mTORC1 in human PC3 cells xenografted in CB17 SCID mouse assessed as inhibition of S6 phosphorylation at 30 mg/kg, po qd after 2 to 8 hrs relative to vehicle-treated control; assay type: functional; conditions: CB17, PC-3
[26] = Plasma protein binding in CB17 SCID mouse xenografted with human PC3 cells at 30 mg/kg, po qd after 24 hrs; assay type: ADME, organism-based, PC-3; set-up: dose 30 mg/kg, route oral; conditions: read-out: PPB (converted)
[27] = test system: Mus musculus; experiment: Toxicity in CB17 SCID mouse xenografted with human PC3 cells at 10 to 50 mg/kg, po qd administered on day 11 post tumor implantation measured after 32 days; assay type: organism-based, PC-3; set-up: dose 10-50 mg/kg, route oral; conditions: in vivo
[28] = test system: PC-3; experiment: Antitumor activity against human PC3 cells xenografted in CB17 SCID mouse assessed as tumor growth inhibition at 50 mg/kg, po qd administered on day 11 post tumor implantation measured after 32 days relative to vehicle-treated control; assay type: functional; conditions: read-out: TGI
[29] = test system: PC-3; experiment: Antitumor activity against human PC3 cells xenografted in CB17 SCID mouse assessed as tumor growth inhibition at 25 mg/kg, po qd administered on day 11 post tumor implantation measured after 32 days relative to vehicle-treated control; assay type: functional; conditions: read-out: TGI
[30] = test system: PC-3; experiment: Antitumor activity against human PC3 cells xenografted in CB17 SCID mouse assessed as tumor growth inhibition at 10 mg/kg, po qd administered on day 11 post tumor implantation measured after 32 days relative to vehicle-treated control; assay type: functional; conditions: read-out: TGI
[31] = Clearance in rat at 2 mg/kg, iv; assay type: ADME, organism-based; set-up: dose 2 mg/kg, route intravenous; conditions: in vivo
[32] = biological target: Phosphatidylinositol 4,5-bisphosphate 3-kinase catalytic subunit alpha isoform (Homo sapiens, UniProt P42336); experiment: Inhibition of PI3Kalpha (unknown origin) by mobility shift assay
Phosphatidylinositol 4,5-bisphosphate 3-kinase catalytic subunit alpha isoform, sequence (P42336 whole entry, canonical isoform): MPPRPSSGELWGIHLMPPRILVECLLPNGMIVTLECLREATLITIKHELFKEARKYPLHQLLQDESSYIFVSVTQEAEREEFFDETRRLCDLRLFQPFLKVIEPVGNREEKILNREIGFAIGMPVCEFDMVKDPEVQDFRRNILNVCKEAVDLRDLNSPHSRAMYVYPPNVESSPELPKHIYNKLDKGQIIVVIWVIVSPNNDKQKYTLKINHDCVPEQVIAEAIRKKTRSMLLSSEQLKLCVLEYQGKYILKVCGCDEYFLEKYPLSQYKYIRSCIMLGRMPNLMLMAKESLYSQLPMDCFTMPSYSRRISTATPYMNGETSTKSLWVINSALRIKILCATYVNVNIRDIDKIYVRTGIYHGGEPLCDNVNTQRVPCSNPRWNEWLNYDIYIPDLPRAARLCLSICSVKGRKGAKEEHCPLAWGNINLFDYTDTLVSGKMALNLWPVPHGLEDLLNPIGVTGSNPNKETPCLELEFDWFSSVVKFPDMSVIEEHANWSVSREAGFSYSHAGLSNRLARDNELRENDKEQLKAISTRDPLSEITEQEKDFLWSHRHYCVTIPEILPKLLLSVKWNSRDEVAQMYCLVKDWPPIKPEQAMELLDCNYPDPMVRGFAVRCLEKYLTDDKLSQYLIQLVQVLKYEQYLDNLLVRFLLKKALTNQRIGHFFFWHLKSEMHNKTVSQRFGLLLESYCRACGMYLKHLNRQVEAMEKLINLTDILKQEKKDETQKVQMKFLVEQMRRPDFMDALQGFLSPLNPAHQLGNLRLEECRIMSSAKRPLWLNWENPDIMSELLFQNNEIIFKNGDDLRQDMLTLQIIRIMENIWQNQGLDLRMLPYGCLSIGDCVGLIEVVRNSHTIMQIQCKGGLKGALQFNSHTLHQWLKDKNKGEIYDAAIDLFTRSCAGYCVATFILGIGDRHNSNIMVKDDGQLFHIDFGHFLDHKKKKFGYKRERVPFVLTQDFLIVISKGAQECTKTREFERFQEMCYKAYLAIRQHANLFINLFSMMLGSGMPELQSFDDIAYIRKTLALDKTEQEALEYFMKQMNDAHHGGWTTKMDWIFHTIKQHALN

[33] = test system: PC-3; conditions: Homo sapiens
[34] = test system: PC-3; conditions: Homo sapiens; remark: listed apart in the source
[35] = test system: PC-3; conditions: Homo sapiens; remark: listed apart in the source
[36] = test system: PC-3; conditions: Homo sapiens; remark: listed apart in the source
[37] = test system: Mus musculus; experiment: In vivo inhibition of mTORC2 in human PC3 cells xenografted in CB17 SCID mouse assessed as inhibition of AKTS473 phosphorylation at 30 mg/kg, po qd after 2 to 8 hrs relative to vehicle-treated control; conditions: CB17, PC-3, po
[38] = test system: Mus musculus; experiment: In vivo inhibition of mTORC2 in human PC3 cells xenografted in CB17 SCID mouse assessed as inhibition of AKTS473 phosphorylation at 30 mg/kg, po qd measured at 24 hrs relative to vehicle-treated control; conditions: CB17, PC-3, po

**Q.** With O=c1[nH]c2ncc(-c3ccc(-c4nc[nH]n4)cc3)nc2n1CCC1CCOCC1 as the compound, how does the bioavailability [1] read?
**A.** 0.85%

**Q.** What about the IC50 [2] of the same compound?
**A.** 18 nM

**Q.** What about the IC50 [3] of the same compound?
**A.** 40 nM

**Q.** And the IC50 [4]?
**A.** 224 nM

**Q.** What about the activity at 10 µM [5] of the same compound?
**A.** 93%

**Q.** Which results are given for CC(C)(O)c1ccc(-c2cnc3c(n2)N(CC2CCOCC2)CC(=O)N3)cn1?
**A.** concentration at 24 h [6]: 190 nM; concentration at 8 h [7]: 1760 nM; concentration at 2 h [8]: 4100 nM; concentration at 4 h [9]: 2870 nM; Cp(f) [10]: 850 nM; Cp(f) [11]: 70 nM; Cp(f) [12]: 1860 nM; Cp(f) [13]: 2390 nM; concentration at 24 h [14]: 190 nM; concentration at 4 h [15]: 5320 nM; concentration at 8 h [16]: 2420 nM; concentration at 2 h [17]: 6830 nM; Tmax [18]: 1.2 h; AUC(0-inf) [19]: 28 µM·h; Cmax [20]: 3300 nM; MRT [21]: 2.7 h; AUC(0-inf) [22]: 10.8 µM·h; Vd [23]: 1.3 L/kg; inhibition in vivo at 30 mg/kg [24]: 43%; inhibition in vivo at 30 mg/kg [25]: 87%; fraction unbound at 24 h [26]: 0.35; Activity [27]: Non-toxic; inhibition in vivo at 50 mg/kg [28]: 84%; inhibition in vivo at 25 mg/kg [29]: 63%; inhibition in vivo at 10 mg/kg [30]: 18%; bioavailability [1]: 100%; clearance [31]: 8.1 mL/min/kg; IC50 [32]: > 30000 nM; TGI [33]: Dose-dependent effect; TGI [34]: Active; TGI [35]: Active; TGI [36]: Active; inhibition in vivo at 30 mg/kg [37]: 53%; inhibition in vivo at 30 mg/kg [38]: 28%

**Q.** With O=C1CN(CCC2CCOCC2)c2nc(-c3ccc(-c4nc[nH]n4)cc3)cnc2N1 as the compound, how does the bioavailability [1] read?
**A.** 0%

**Q.** And the IC50 [4]?
**A.** 148 nM

**Q.** For CC(C)(O)c1ccc(-c2cnc3[nH]c(=O)n(CC4CCOCC4)c3n2)cn1, which IC50 [2] is on record?
**A.** 2550 nM

**Q.** And the IC50 [3]?
**A.** 2410 nM

**Q.** What about the IC50 [32] of the same compound?
**A.** > 30000 nM

**Q.** What about the IC50 [4] of the same compound?
**A.** 4180 nM
